Like-named read-outs stand apart in the source and are kept apart here.
Tests used:
topoisomerase II = conditions: cited from earlier work
human leukemia HL-60 = conditions: cited from earlier work; for rank order of potency: apoptosis induction in HL-60 and topoisomerase II inhibition, Nagase et al. 2003
protein aggregation = test: In vitro Huntington Aggregation Assay; type: biochemical
Hsp70 = type: cell-based
[1] = Cellular toxicity / cytotoxicity; type: cell-based
[2] = tested on: constitutive NO synthases; conditions: cited from earlier work
IL-1β = conditions: cited from earlier work
inducible NO synthase = conditions: cited from earlier work
[3] = tested on: heat shock proteins (HSPs); conditions: cited from earlier work
nitric oxide production = conditions: cited from earlier work
NF-κB activation = conditions: cited from earlier work
TNF-α = conditions: cited from earlier work
microglia = conditions: cited from earlier work

Cc1c(O)c(O)cc2c1CC=C1[C@@]2(C)CC[C@@]2(C)[C@@H]3C[C@](C)(C(=O)O)CC[C@]3(C)CC[C@]12C [dihydrocelastrol]
activity in inhibiting topoisomerase II compared with celastrol and etoposide (topoisomerase II): weaker activity | rank order of potency (human leukemia HL-60): celastrol>etoposide>dihydrocelastrol | activity in inducing apoptosis compared with celastrol and etoposide (human leukemia HL-60; human leukemia HL-60 model): weaker activity | inhibition of protein aggregation in the in vitro Huntington Aggregation assay (protein aggregation): potent | Hsp70 generation (Hsp70; Dose 0.1 uM): .051 | Hsp70 generation (Hsp70; Dose 0.3 uM): .036 | Hsp70 generation (Hsp70; Dose 0.5 uM): .033 | Hsp70 generation (Hsp70; Dose 1.0 uM): .052 | Hsp70 generation (Hsp70; Dose 2.0 uM): .049 | Hsp70 generation (Hsp70; Dose 3.0 uM): .117 | Hsp70 generation (Hsp70; Dose 6 uM): 3.37 | Hsp70 generation (Hsp70; Dose 10 uM): .044

dihydrocelastrol diacetate
inhibition of protein aggregation in the in vitro Huntington Aggregation assay (protein aggregation): potent | potency compared with celastrol (Hsp70): at least equivalent to celastrol in potency | Hsp70 generation (Hsp70; Dose 0.1 uM): .041 | Hsp70 generation (Hsp70; Dose 0.3 uM): .039 | Hsp70 generation (Hsp70; Dose 0.5 uM): .041 | Hsp70 generation (Hsp70; Dose 1.0 uM): .071 | Hsp70 generation (Hsp70; Dose 2.0 uM): 12.3 | Hsp70 generation (Hsp70; Dose 3.0 uM): 2.61 | Hsp70 generation (Hsp70; Dose 6 uM): .040 | Hsp70 generation (Hsp70; Dose 10 uM): .096 | cytotoxicity compared with celastrol [1]: reduced cytotoxicity

COc1cc([C@@H]2c3cc4c(cc3[C@@H](O[C@@H]3O[C@@H]5CO[C@@H](C)O[C@H]5[C@H](O)[C@H]3O)[C@H]3COC(=O)[C@H]23)OCO4)cc(OC)c1O [etoposide]
rank order of potency (human leukemia HL-60): celastrol>etoposide>dihydrocelastrol

dihydropristimerin
inhibition of protein aggregation in the in vitro Huntington Aggregation assay (protein aggregation): potent | Hsp70 generation (Hsp70; Dose 0.1 uM): .050 | Hsp70 generation (Hsp70; Dose 0.3 uM): .039 | Hsp70 generation (Hsp70; Dose 0.5 uM): .037 | Hsp70 generation (Hsp70; Dose 1.0 uM): .043 | Hsp70 generation (Hsp70; Dose 2.0 uM): .042 | Hsp70 generation (Hsp70; Dose 3.0 uM): .045 | Hsp70 generation (Hsp70; Dose 6 uM): .102 | Hsp70 generation (Hsp70; Dose 10 uM): .034

COC(=O)[C@]1(C)CC[C@]2(C)CC[C@]3(C)C4=CC=C5C(=CC(=O)C(O)=C5C)[C@]4(C)CC[C@@]3(C)[C@@H]2C1 [pristimerin, reference compound]
Hsp70 generation (Hsp70; Dose 0.1 uM): .30 | Hsp70 generation (Hsp70; Dose 0.3 uM): .056 | Hsp70 generation (Hsp70; Dose 0.5 uM): .331 | Hsp70 generation (Hsp70; Dose 1.0 uM): 2.84 | Hsp70 generation (Hsp70; Dose 2.0 uM): .094 | Hsp70 generation (Hsp70; Dose 3.0 uM): .035 | Hsp70 generation (Hsp70; Dose 6 uM): .033 | Hsp70 generation (Hsp70; Dose 10 uM): 1.25

CC1=C(O)C(=O)C=C2C1=CC=C1[C@@]2(C)CC[C@@]2(C)[C@@H]3C[C@](C)(C(=O)O)CC[C@]3(C)CC[C@]12C [celastrol, reference compound]
concentration inhibiting topoisomerase II (topoisomerase II): sub-micromolar concentrations | rank order of potency (human leukemia HL-60): celastrol>etoposide>dihydrocelastrol | concentration inducing apoptosis (human leukemia HL-60; human leukemia HL-60 model): sub-micromolar concentrations | inhibition of constitutive NO synthases [2]: does not inhibit | inhibition of protein aggregation in the in vitro Huntington Aggregation assay (protein aggregation): potent inhibitor | inhibition of production of IL-1β (IL-1β): inhibits | inhibition of expression of inducible NO synthase (inducible NO synthase): inhibits | concentration enhancing cellular HSP production [3]: sub-micromolar concentrations | Hsp70 generation (Hsp70; Dose 0.1 uM): .043 | Hsp70 generation (Hsp70; Dose 0.3 uM): .046 | Hsp70 generation (Hsp70; Dose 0.5 uM): .039 | Hsp70 generation (Hsp70; Dose 1.0 uM): .423 | Hsp70 generation (Hsp70; Dose 2.0 uM): 15.0 | Hsp70 generation (Hsp70; Dose 3.0 uM): 4.54 | Hsp70 generation (Hsp70; Dose 6 uM): .240 | Hsp70 generation (Hsp70; Dose 10 uM): .034 | IC50 (nitric oxide production): 230 nM | IC50 (NF-κB activation): 270 nM | inhibition of production of TNF-α (TNF-α): inhibits | inhibition of microglial activation (microglia): inhibits

COC(=O)[C@]1(C)CC[C@]2(C)CC[C@]3(C)C4=CCc5c(cc(OC(C)=O)c(OC(C)=O)c5C)[C@]4(C)CC[C@@]3(C)[C@@H]2C1 [dihydropristimerin diacetate]
Hsp70 generation (Hsp70; Dose 0.1 uM): .038 | Hsp70 generation (Hsp70; Dose 0.3 uM): .048 | Hsp70 generation (Hsp70; Dose 0.5 uM): .042 | Hsp70 generation (Hsp70; Dose 1.0 uM): .049 | Hsp70 generation (Hsp70; Dose 2.0 uM): .047 | Hsp70 generation (Hsp70; Dose 3.0 uM): .049 | Hsp70 generation (Hsp70; Dose 6 uM): .246 | Hsp70 generation (Hsp70; Dose 10 uM): .273

N=C(N)NN [aminoguanidine]
IC50 (nitric oxide production): 16000 nM
